Laboratory results from US20080021030A1, “Substituted Pyrazoles As Ppar Agonists” (priority 2003, published 2008).

Key:
hPPAR alpha = target: T1, hPPAR alpha (Homo sapiens, UniProt Q07869); assay: Transient transfection (transactivation) assay in CV-1 cells, GAL4-PPAR LBD chimera, SPAP reporter; type: cell-based; conditions: read-out: EC50 μM HPPARα
T1 construct: expressed in transfected cells; host or cells: CV-1 cells
T1 sequence (Q07869 239-466 limits assumed): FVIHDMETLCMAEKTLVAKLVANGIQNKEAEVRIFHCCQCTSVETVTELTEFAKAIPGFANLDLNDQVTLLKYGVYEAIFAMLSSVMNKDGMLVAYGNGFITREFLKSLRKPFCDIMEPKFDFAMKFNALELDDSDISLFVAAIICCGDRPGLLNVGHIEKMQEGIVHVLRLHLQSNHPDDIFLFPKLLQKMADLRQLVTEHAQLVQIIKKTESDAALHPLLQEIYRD
Description: (§1) Compounds were screened for functional potency in transient transfection assays in CV-1 cells for their ability to activate the PPAR subtypes (transactivation assay). A previously established chimeric receptor system was utilized to allow comparison of the relative transcriptional activity of the receptor subtypes on the same target gene and to prevent endogenous receptor activation from complicating the interpretation of results. See, for example, Lehmann, J. M.; Moore, L. B.; Smith-Oliver, T. A.; Wilkison, W. O.; Willson, T. M.; Kliewer, S. A., An antidiabetic thiazolidinedione is a high affinity ligand for peroxisome proliferator-activated receptor gamma (PPARgamma), J. Biol. Chem., 270, 12953-6 (1995). The ligand binding domains for murine and human PPAR alpha, PPAR gamma, and PPAR delta were each fused to the yeast transcription factor GAL4 DNA binding domain. CV-1 cells were transiently transfected with expression vectors for the respective PPAR chimera along with a reporter construct containing five copies of the GAL4 DNA binding site driving expression of secreted placental alkaline phosphatase (SPAP) and beta-galactosidase. After 16 h, the medium was exchanged to DME medium supplemented with 10% delipidated fetal calf serum and the test compound at the appropriate concentration. After an additional 24 h, cell extracts were prepared and assayed for alkaline phosphatase and β-galactosidase activity. Alkaline phosphatase activity was corrected for transfection efficiency using the beta-galactosidase activity as an internal standard (see, for example, Kliewer, S. A., et. al. Cell 83, 813-819 (1995)). Rosiglitazone (BRL 49653) was used as a positive control in the hPPAR gamma assay. The positive control in the hPPAR alpha assays was 2-4-[2-(3-[4-fluorophenyl]-1-heptylureido)ethyl]-phenoxy-(2-methyl propionic acid (WO 97/36579). The positive control for PPAR delta assays was 2-{2-methyl-4-[({4-methyl-2-{trifluoromethyl)phenyl]-1,3-thiazol-5-yl}methyl)sulfanyl]phenoxy}acetic acid (WO 01/00603). The positive control was (5-{4-[2-(Methyl-pyridin-2-yl-amino)-ethoxy]-benzyl}-thiazolidine-2,4-dione (J. Med. Chem. 1994, 37(23), 3977), for PPAR gamma.
(§2) Activities in three hPPAR subtypes are reported in the table and are expressed in micromolar.

hPPAR delta = target: T2, hPPAR delta (Homo sapiens, UniProt Q03181); assay: as above; type: cell-based; conditions: read-out: EC50 μM HPPARδ
T2 construct: expressed in transfected cells; host or cells: CV-1 cells
T2 sequence (Q03181 211-439 limits assumed): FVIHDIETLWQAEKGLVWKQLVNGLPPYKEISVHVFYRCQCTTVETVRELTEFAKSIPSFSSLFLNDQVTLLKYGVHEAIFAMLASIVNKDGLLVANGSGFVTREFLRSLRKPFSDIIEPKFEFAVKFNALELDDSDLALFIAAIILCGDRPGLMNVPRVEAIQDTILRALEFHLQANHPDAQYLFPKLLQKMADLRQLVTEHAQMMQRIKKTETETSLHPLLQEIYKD
Description: as §1, §2

hPPAR gamma = target: T3, hPPAR gamma (Homo sapiens, UniProt P37231); assay: as above; type: cell-based; conditions: read-out: EC50 μM HPPARγ
T3 construct: expressed in transfected cells; host or cells: CV-1 cells
T3 sequence (P37231 238-503 limits assumed): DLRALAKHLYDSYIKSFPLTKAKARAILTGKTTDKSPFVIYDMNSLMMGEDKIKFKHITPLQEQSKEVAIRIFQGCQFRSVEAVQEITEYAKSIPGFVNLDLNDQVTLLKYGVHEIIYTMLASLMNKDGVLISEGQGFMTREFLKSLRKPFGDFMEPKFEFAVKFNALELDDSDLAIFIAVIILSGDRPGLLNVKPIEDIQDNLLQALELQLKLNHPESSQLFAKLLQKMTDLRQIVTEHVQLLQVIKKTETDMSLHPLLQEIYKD
Description: Compounds were screened for functional potency in transient transfection assays in CV-1 cells for their ability to activate the PPAR subtypes (transactivation assay). A previously established chimeric receptor system was utilized to allow comparison of the relative transcriptional activity of the receptor subtypes on the same target gene and to prevent endogenous receptor activation from complicating the interpretation of results. […] The ligand binding domains for murine and human PPAR alpha, PPAR gamma, and PPAR delta were each fused to the yeast transcription factor GAL4 DNA binding domain. CV-1 cells were transiently transfected with expression vectors for the respective PPAR chimera along with a reporter construct containing five copies of the GAL4 DNA binding site driving expression of secreted placental alkaline phosphatase (SPAP) and beta-galactosidase. After 16 h, the medium was exchanged to DME medium supplemented with 10% delipidated fetal calf serum and the test compound at the appropriate concentration. After an additional 24 h, cell extracts were prepared and assayed for alkaline phosphatase and β-galactosidase activity.

EC50 (hPPAR alpha)	EC50 (hPPAR delta)	EC50 (hPPAR gamma)	melting point	Compound
0.024 µM	> 25 µM	0.054 µM	96 °C	Cc1cc(CNC(=O)c2cc(-c3ccc(-c4ccco4)cc3)n(C)n2)ccc1OC(C)(C)C(=O)O [Example 35, 2-[(4-{[({5-[4-(2-furanyl)phenyl]-1-methyl-1H-prazol-3-yl}carbonyl)amino]methyl}-2-methylphenyl)oxy]-2-methylpropanoic acid]
0.176 µM	5.17 µM	0.037 µM	90 to 100 °C	Cc1cc(CNC(=O)c2cc(-c3ccc(-c4ccccc4C)cc3)nn2C)ccc1OC(C)(C)C(=O)O [Example 36, 2-methyl-2-{2-methyl-4-[({[1-methyl-3-(2′-methylbiphenyl-4-yl)-1H-pyrazol-5-yl]carbonyl}amino)methyl]phenoxy}propanoic acid]
0.006 µM	0.449 µM	0.021 µM	72 °C	CCCCc1ccc(-c2cc(C(=O)NCc3cc(C)c(OC(C)(C)C(=O)O)c(C)c3)nn2C)cc1 [Example 37, 2-{4-[({[5-(4-butylphenyl)-1-methyl-1H-pyrazol-3-yl]carbonyl}amino)methyl]-2,6-dimethylphenoxy}-2-methylpropanoic acid]
0.01 µM	> 25 µM	0.072 µM	74 °C	CCCCc1ccc(-c2cc(C(=O)NCc3cc(C)c(OC(C)(C)C(=O)O)c(Cl)c3)nn2C)cc1 [Example 38, 2-{4-[({[5-(4-butylphenyl)-1-methyl-1H-pyrazol-3-yl]carbonyl}amino)methyl]-2-chloro-6-methylphenoxy}-2-methylpropanoic acid]
0.066 µM	2.05 µM	0.303 µM	112 °C	COCCn1nc(-c2ccc(C(C)(C)C)cc2)cc1C(=O)NCc1ccc(OC(C)(C)C(=O)O)c(C)c1 [Example 48, 2-[(4-{[({3-[4-(1,1-dimethylethyl)phenyl]-1-[2-(methyloxy)ethyl]-1H-pyrazol-5-yl}carbonyl)amino]methyl}-2-methylphenyl)oxy]-2-methylpropanoic acid]
0.257 µM	1.17 µM	0.052 µM	116 °C	Cc1cc(CNC(=O)c2cc(-c3ccc(C(C)(C)C)cc3)nn2CC(=O)c2ccccc2)ccc1OC(C)(C)C(=O)O [Example 49, 2-({4-[({[3-[4-(1,1-dimethylethyl)phenyl]-1-(2-oxo-2-phenylethyl)-1H-pyrazol-5-yl]carbonyl}amino)methyl]-2methylphenyl}oxy)-2-methylpropanoic acid]
0.042 µM	> 25 µM	0.478 µM	65 °C	COCCn1nc(C(=O)NCc2ccc(OC(C)(C)C(=O)O)c(C)c2)cc1-c1ccc(C(C)(C)C)cc1 [Example 52, 2-[(4-{[({5-[4-(1,1-dimethylethyl)phenyl]-1-[2-(methyloxy)ethyl]-1H-pyrazol-3-yl}carbonyl)amino]methyl}-2-methylphenyl)oxy]-2-methylpropanoic acid]
0.383 µM	> 25 µM	0.269 µM	100 °C	Cc1cc(CNC(=O)c2cc(-c3ccc(C(C)(C)C)cc3)[nH]n2)ccc1OC(C)(C)C(=O)O [Example 53, 2-[(4-{[({5-[4-(1,1-dimethylethyl)phenyl]-1H-pyrazol-3-yl}carbonyl)amino]methyl}-2-methylphenyl)oxy]-2-methylpropanoic acid]
0.032 µM	> 25 µM	0.069 µM		C=CCn1nc(C(=O)NCc2ccc(OC(C)(C)C(=O)O)c(C)c2)cc1-c1ccc(C(C)(C)C)cc1 [Example 62, 2-({4-[({[5-[4-(1,1-dimethylethyl)phenyl]-1-(2-propen-1-yl)-1H-pyrazol-3-yl]carbonyl}amino)methyl]-2-methylphenyl}oxy)-2-methylpropanoic acid]

More lines, now with the values behind:

Compound	EC50 (hPPAR alpha)	EC50 (hPPAR delta)	EC50 (hPPAR gamma)	melting point
Cc1cc(CNC(=O)c2cc(-c3ccc(C(C)(C)C)cc3)nn2C)cc(C)c1OC(C)(C)C(=O)O [Example 26, 2-{4-[({[3-(4-tert-butylphenyl)-1-methyl-1H-pyrazol-5-yl]carbonyl}amino)methyl]-2,6-dimethylphenoxy}-2-methylpropanoic acid]	0.003 µM	1 µM	0.016 µM	> 122 °C
Cc1cc(CNC(=O)c2cc(-c3ccc(CC(C)C)cc3)n(C)n2)cc(Cl)c1OC(C)(C)C(=O)O [Example 27, 2-{2-chloro-4-[({[5-(4-isobutylphenyl)-1-methyl-1H-pyrazol-3-yl]carbonyl}amino)methyl]-6-methylphenoxy}-2-methylpropanoic acid]	< 0.001 µM	0.206 µM	0.031 µM	75 to 80 °C
Cc1cc(CNC(=O)c2cc(-c3cccc(-c4ccccc4)c3)nn2C)ccc1OC(C)(C)C(=O)O [Example 28, 2-[4-({[(3-biphenyl-3-yl-1-methyl-1H-pyrazol-5-yl)carbonyl]amino}methyl)-2-methylphenoxy]-2-methylpropanoic acid]	0.589 µM	> 25 µM	1.47 µM	88 °C
Cc1cc(CNC(=O)c2cc(-c3ccc(Br)cc3)n(C)n2)ccc1OC(C)(C)C(=O)O [Example 30, 2-({4-[({[5-(4-bromophenyl)-1-methyl-1H-pyrazol-3-yl]carbonyl}amino)methyl]-2-methylphenyl}oxy)-2-methylpropanoic acid]	0.046 µM	3.12 µM	0.229 µM	84 to 92 °C
Cc1cc(CNC(=O)c2cc(-c3ccc(-c4cccs4)cc3)n(C)n2)ccc1OC(C)(C)C(=O)O [Example 32, 2-methyl-2-[(2-methyl-4-{[({1-methyl-5-[4-(2-thienyl)phenyl]-1H-pyrazol-3-yl}carbonyl)amino]methyl}phenyl)oxy]propanoic acid]	0.015 µM	> 25 µM	0.023 µM	92 °C
Cc1cc(CNC(=O)c2cc(-c3ccc(-c4ccoc4)cc3)n(C)n2)ccc1OC(C)(C)C(=O)O [Example 33, 2-[(4-{[({5-[4-(3-furanyl)phenyl]-1-methyl-1H-pyrazol-3-yl}carbonyl)amino]methyl}-2-methylphenyl)oxy]-2-methylpropanoic acid]	0.004 µM	1.64 µM		102 °C
Cc1cc(CNC(=O)c2cc(-c3ccc(-c4ccncc4)cc3)n(C)n2)ccc1OC(C)(C)C(=O)O [Example 34, 2-methyl-2-[(2-methyl-4-{[({1-methyl-5-[4-(4-pyridinyl)phenyl]-1H-pyrazol-3-yl}carbonyl)amino]methyl}phenyl)oxy]propanoic acid]	0.734 µM	> 25 µM		264 °C (dec.)
